Data from ChEMBL document CHEMBL5376015, “Kinase inhibitor macrocycles: a perspective on limiting conformational flexibility when targeting the kinome with small molecules” (RSC Med Chem, 2024).
In brackets after ≈: the same amount, converted by molar mass. Values belong to the compound of their own block, whether it stands above or below them.

How the values were obtained:
[1] = in vitro; settings: human, human liver microsomes
Description: Clearance in human liver microsomes

[2] = physchem; settings: octanol/water
Description: Lipophilicity, logD of the compound

[3] = target: Tyrosine-protein kinase JAK1 (Homo sapiens, UniProt P23458)
Description: Inhibition of human recombinant JAK1

[4] = target: Cyclin-dependent kinase 2 (Homo sapiens, UniProt P24941); experiment: Inhibition of human recombinant CDK2 by Kinomescan method
[5] = target: T1, Tyrosine-protein kinase JAK3 (Homo sapiens, UniProt P52333); experiment: Inhibition of human recombinant JAK3
T1 sequence (P52333 whole entry): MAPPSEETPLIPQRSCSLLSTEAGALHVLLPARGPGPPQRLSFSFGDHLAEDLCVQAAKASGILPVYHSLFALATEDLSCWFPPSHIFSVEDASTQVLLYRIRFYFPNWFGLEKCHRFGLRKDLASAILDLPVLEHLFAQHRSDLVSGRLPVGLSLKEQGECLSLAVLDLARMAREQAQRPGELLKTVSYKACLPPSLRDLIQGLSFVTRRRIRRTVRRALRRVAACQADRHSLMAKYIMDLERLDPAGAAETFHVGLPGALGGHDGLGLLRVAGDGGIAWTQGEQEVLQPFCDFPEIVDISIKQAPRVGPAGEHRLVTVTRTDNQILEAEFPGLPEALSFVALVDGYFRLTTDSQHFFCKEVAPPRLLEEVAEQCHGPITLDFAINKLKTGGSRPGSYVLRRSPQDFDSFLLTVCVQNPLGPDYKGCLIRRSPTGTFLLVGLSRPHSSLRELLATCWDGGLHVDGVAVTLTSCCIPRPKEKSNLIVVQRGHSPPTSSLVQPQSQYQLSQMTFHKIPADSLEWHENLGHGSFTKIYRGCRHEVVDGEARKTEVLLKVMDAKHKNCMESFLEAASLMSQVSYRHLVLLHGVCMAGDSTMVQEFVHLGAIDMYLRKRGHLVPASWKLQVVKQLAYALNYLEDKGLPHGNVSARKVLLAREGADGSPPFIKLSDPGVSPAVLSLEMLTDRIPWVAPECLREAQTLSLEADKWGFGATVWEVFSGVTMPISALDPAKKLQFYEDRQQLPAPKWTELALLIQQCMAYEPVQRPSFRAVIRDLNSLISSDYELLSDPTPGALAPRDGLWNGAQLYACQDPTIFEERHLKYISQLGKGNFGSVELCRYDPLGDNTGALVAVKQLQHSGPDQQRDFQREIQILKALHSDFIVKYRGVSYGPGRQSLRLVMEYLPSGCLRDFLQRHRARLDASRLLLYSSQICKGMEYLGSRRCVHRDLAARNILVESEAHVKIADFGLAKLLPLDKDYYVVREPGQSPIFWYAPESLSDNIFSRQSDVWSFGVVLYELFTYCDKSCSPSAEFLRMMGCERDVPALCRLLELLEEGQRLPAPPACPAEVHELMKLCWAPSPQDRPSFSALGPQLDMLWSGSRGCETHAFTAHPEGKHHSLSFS

[6] = target: Non-receptor tyrosine-protein kinase TYK2 (Homo sapiens, UniProt P29597); experiment: Inhibition of human recombinant TYK2
[7] = target: Tyrosine-protein kinase JAK2 (Homo sapiens, UniProt O60674)
Description: Inhibition of human recombinant JAK2

[8] = target: T2, Receptor-type tyrosine-protein kinase FLT3 (Homo sapiens, UniProt P36888)
T2 sequence (P36888 whole entry): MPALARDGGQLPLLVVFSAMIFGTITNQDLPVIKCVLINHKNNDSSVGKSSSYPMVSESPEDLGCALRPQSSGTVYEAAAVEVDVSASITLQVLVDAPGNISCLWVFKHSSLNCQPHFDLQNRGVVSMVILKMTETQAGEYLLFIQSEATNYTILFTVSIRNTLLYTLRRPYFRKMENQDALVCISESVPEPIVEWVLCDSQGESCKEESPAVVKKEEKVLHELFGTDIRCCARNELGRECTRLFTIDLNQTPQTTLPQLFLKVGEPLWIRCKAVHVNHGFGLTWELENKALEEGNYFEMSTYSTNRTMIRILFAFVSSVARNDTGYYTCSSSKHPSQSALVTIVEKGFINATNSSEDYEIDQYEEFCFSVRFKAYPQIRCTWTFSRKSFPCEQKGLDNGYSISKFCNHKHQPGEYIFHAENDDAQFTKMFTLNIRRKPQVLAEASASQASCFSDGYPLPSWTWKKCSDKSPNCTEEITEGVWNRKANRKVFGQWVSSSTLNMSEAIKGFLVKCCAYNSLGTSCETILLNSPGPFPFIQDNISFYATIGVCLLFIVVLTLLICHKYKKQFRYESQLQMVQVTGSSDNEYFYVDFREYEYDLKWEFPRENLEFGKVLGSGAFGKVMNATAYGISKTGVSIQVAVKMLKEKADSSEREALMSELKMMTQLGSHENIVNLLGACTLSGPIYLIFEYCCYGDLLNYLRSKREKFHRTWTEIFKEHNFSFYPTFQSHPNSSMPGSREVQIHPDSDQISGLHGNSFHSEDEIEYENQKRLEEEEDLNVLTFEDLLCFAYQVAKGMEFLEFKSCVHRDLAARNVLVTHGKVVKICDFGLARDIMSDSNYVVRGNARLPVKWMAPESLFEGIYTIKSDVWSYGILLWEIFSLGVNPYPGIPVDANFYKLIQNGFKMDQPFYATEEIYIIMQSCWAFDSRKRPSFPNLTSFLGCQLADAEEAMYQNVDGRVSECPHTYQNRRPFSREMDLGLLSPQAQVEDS
Description: Inhibition of recombinant FLT3 in human MV4-11 cells assessed as reduction in ERK phosphorylation by Western blotting analysis

[9] = tested on: BaF3; experiment: Growth inhibition of mouse BaF3 cells harboring JAK2 V617F mutant assessed as reduction in cell viability incubated for 72 hrs by MTT assay; format: functional
[10] = target: T3, Cytochrome P450 2D6 (Homo sapiens, UniProt P10635)
Description: Inhibition of CYP2D6 in human liver microsomes using dextromethorphan as substrate by LC-MS/MS analysis

[11] = in vitro; settings: PAMPA, pH 7.4
Description: Permeability of compound at pH 7.4 by PAMPA assay

[12] = physchem; settings: PBS, pH 7
Description: Aqueous solubility of the compound in PBS at pH 7

[13] = target: T4, Cytochrome P450 3A4 (Homo sapiens, UniProt P08684)
Description: Inhibition of CYP3A4 in human liver microsomes using testosterone as substrate by LC-MS/MS analysis

[14] = target: ALK tyrosine kinase receptor (Homo sapiens, UniProt Q9UM73)
Description: Binding affinity to ALK (unknown origin) assessed as inhibition of constant

[15] = target: ALK tyrosine kinase receptor (Homo sapiens, UniProt Q9UM73, L1196M)
Description: Binding affinity to ALK L1196M mutant (unknown origin) assessed as inhibition constant

[16] = Kinetic solubility of compound at pH 7; format: physicochemical; settings: buffer, read-out: Kinetic_solubility
[17] = in vitro; settings: mouse, mouse liver microsomes
Description: Half life in mouse liver microsomes

[18] = Plasma protein binding in mouse; format: ADME, cell-free; settings: read-out: PPB (converted)
[19] = in vitro; settings: human, human liver microsomes; remark: listed apart in the source
Description: Half life in human liver microsome

[20] = tested on: NIH3T3; experiment: cells; settings: Mus musculus
Description: Antiproliferative activity against mouse NIH3T3 cells transfected with wild type TRKA assessed as cell growth inhibition

[21] = tested on: BaF3; experiment: cells; settings: Mus musculus, BaF3, 72 h
Description: Antiproliferative activity against mouse BaF3 cells harbouring TRKA G595R mutant assessed as cell growth inhibition incubated for 3 days by CCK8 method

[22] = tested on: NIH3T3; experiment: Antiproliferative activity against mouse NIH3T3 cells harbouring TRKA V573M mutant assessed as cell growth inhibition incubated for 3 days by CCK8 method; format: functional; settings: NIH3T3, 72 h, time 3 day
[23] = tested on: NIH3T3; experiment: Antiproliferative activity against mouse NIH3T3 cells expressing TRKC G623R mutant assessed as inhibition of cell growth measured after 72 hrs by CCK-8 assay; format: functional
[24] = tested on: NIH3T3; experiment: Antiproliferative activity against mouse NIH3T3 cells expressing wild type TRKC […] assessed as inhibition of cell growth measured after 72 hrs by CCK-8 assay; format: functional
[25] = tested on: NIH3T3; experiment: Antiproliferative activity against mouse NIH3T3 cells harbouring ETV6-TRKC G696A mutant incubated for 3 days by CCK8 method; format: functional; settings: NIH3T3, 72 h, time 3 day
[26] = tested on: BaF3; experiment: cells; settings: Mus musculus, BaF3, 72 h; remark: listed apart in the source
Description: Antiproliferative activity against mouse BaF3 cells harbouring wild type TRKC assessed as cell growth inhibition incubated for 3 days by CCK8 method

[27] = tested on: NIH3T3; experiment: Antiproliferative activity against mouse NIH3T3 cells expressing TRKA G667S mutant assessed as inhibition of cell growth measured after 72 hrs by CCK-8 assay; format: functional
[28] = tested on: BaF3; experiment: cells; settings: Mus musculus, BaF3, 72 h; remark: listed apart in the source
[29] = tested on: BaF3; experiment: cells; settings: Mus musculus, BaF3, 72 h; remark: listed apart in the source
Description: Antiproliferative activity against mouse BaF3 cells harbouring ETV6-TRKC G623E mutant incubated for 3 days by CCK8 method

[30] = target: T3, Cytochrome P450 2D6; remark: listed apart in the source
Description: Inhibition of CYP2D6 (unknown origin)

[31] = target: T4, Cytochrome P450 3A4; remark: listed apart in the source
Description: Inhibition of CYP3A4 (unknown origin)

[32] = tested on: NIH3T3; experiment: Antiproliferative activity against mouse NIH3T3 cells harbouring TRKC G595R mutant assessed as cell growth inhibition incubated for 3 days by CCK8 method; format: functional; settings: NIH3T3, 72 h, time 3 day
[33] = tested on: NIH3T3; experiment: Antiproliferative activity against mouse NIH3T3 cells expressing TRKA F589L mutant assessed as inhibition of cell growth measured after 72 hrs by CCK-8 assay; format: functional

Tyrosine-protein kinase JAK2, sequence (O60674 whole entry): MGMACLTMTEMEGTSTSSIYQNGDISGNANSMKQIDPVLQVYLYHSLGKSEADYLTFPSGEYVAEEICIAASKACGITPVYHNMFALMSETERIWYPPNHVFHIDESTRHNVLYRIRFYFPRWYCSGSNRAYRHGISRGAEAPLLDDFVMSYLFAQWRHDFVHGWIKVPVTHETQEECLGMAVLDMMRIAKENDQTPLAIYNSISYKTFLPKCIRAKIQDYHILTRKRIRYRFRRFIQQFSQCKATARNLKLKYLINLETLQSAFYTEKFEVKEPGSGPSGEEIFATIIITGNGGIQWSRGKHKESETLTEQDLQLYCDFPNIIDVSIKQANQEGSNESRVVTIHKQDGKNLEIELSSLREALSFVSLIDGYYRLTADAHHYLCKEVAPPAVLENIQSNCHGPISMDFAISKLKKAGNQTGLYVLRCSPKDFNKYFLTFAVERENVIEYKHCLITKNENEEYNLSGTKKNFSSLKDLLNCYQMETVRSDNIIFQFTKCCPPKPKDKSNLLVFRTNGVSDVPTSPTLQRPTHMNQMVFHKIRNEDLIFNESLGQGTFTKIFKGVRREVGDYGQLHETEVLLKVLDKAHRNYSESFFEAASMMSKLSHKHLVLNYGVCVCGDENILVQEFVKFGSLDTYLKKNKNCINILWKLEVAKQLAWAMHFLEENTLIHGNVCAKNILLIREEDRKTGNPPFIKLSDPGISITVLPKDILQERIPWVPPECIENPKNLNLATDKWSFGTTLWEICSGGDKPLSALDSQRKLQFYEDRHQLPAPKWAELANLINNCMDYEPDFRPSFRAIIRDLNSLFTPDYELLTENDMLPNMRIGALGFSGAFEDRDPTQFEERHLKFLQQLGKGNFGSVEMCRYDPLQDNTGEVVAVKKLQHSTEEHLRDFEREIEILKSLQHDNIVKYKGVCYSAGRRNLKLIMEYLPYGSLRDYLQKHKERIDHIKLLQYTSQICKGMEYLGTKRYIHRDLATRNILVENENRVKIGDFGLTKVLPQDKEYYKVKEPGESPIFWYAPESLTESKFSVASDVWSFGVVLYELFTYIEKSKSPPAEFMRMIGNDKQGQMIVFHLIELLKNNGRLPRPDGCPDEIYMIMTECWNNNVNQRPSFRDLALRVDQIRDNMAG
T3 sequence (P10635 whole entry): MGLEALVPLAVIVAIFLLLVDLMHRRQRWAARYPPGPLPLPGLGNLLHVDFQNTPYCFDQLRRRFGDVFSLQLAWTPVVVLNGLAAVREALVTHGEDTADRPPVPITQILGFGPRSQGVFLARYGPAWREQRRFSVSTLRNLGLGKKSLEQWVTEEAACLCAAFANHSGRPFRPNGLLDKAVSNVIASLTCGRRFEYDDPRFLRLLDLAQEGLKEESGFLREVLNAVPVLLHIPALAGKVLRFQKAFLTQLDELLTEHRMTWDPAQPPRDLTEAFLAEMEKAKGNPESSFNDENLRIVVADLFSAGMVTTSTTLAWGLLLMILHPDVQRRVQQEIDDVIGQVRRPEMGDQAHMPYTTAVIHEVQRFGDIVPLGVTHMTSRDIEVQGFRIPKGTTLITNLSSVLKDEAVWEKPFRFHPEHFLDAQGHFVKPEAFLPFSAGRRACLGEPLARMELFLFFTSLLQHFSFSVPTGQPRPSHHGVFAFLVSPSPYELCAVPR
Tyrosine-protein kinase JAK1, sequence (P23458 whole entry): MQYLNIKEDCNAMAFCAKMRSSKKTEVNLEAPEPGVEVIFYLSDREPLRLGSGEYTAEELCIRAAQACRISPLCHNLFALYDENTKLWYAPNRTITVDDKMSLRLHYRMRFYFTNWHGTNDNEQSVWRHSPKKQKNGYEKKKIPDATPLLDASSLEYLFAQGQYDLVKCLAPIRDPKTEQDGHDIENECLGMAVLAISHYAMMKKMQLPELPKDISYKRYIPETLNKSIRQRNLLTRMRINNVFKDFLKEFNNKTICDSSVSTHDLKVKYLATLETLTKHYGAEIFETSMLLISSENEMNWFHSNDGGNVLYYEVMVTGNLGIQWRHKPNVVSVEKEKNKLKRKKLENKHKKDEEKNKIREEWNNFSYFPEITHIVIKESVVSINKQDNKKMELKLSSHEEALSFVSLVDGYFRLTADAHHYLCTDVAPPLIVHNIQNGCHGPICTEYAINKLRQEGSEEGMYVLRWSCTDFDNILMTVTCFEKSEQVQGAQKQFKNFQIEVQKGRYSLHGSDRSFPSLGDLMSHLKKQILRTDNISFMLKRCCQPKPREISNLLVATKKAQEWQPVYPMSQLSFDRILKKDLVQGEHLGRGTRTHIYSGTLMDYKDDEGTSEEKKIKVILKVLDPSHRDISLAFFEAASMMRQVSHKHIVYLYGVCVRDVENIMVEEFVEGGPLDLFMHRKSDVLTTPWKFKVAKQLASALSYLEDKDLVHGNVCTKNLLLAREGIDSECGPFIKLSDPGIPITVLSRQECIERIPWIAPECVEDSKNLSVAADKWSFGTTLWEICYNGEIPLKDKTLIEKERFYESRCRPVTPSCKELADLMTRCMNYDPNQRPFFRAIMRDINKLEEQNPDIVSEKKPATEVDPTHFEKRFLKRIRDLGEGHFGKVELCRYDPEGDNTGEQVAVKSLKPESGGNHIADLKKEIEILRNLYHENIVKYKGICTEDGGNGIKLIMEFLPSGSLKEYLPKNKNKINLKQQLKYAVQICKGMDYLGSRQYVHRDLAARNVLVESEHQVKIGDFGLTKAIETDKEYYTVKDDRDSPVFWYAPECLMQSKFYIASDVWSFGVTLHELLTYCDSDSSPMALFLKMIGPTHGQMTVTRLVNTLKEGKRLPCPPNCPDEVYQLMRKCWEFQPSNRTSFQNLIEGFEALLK
T4 sequence (P08684 whole entry): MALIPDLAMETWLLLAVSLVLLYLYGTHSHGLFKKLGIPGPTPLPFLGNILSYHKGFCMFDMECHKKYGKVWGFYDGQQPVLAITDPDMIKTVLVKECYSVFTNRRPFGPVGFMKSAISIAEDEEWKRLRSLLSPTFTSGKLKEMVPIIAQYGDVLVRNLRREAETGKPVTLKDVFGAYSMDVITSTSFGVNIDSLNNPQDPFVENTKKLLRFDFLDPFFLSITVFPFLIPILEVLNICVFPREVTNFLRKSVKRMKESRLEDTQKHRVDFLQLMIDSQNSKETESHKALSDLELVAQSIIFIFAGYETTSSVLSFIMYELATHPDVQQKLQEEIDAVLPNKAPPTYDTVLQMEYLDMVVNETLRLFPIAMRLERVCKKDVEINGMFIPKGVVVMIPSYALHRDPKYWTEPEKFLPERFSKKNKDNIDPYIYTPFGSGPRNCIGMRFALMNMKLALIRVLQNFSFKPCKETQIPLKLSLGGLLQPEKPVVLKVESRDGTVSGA
Non-receptor tyrosine-protein kinase TYK2, sequence (P29597 whole entry): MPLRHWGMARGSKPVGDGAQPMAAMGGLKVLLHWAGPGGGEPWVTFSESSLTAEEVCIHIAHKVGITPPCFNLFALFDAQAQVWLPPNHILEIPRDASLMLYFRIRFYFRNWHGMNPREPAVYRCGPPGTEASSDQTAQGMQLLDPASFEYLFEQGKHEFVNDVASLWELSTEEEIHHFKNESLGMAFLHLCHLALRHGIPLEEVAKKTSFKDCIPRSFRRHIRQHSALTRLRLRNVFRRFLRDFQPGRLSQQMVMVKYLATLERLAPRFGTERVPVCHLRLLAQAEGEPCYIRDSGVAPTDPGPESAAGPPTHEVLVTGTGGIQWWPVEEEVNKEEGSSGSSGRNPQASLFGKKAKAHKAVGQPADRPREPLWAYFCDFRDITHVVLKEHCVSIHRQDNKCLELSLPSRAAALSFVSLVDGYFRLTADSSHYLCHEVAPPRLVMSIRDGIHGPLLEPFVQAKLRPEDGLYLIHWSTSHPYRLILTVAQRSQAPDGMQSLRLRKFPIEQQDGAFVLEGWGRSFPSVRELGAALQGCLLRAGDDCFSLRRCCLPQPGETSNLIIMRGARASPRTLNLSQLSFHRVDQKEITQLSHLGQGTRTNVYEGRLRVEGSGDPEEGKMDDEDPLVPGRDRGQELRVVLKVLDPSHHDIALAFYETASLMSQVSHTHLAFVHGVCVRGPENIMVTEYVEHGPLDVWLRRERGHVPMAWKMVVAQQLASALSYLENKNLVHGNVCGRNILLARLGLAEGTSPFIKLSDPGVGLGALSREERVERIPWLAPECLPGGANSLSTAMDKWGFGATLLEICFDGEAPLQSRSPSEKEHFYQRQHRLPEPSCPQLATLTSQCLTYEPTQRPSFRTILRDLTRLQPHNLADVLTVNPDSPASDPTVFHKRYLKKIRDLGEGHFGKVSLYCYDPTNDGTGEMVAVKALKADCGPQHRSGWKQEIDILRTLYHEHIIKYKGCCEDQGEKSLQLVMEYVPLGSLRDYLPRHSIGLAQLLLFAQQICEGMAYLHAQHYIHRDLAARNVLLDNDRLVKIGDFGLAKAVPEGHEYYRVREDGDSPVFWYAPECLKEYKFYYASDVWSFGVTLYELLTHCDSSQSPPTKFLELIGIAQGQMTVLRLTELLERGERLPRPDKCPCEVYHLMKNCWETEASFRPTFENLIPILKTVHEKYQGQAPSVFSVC

microsomal CLint [1]: 25 µL/min/mg
SMILES: COc1ccc(F)cc1[C@@H](C)Oc1cc(-c2cnnn2C)cnc1N

microsomal CLint [1]: 28 µL/min/mg | logD [2]: 3.7
SMILES: CNC(=O)c1ccc(F)cc1[C@@H](C)Oc1cc(-c2cn(C)nc2C)cnc1N

microsomal CLint [1]: 76 µL/min/mg
SMILES: CNC(=O)c1ccc(F)cc1[C@@H](C)Oc1nc(-c2cccnc2OC)cnc1N

microsomal CLint [1]: 8.6 µL/min/mg
SMILES: Cc1nn(C)c2c1-c1cnc(N)c(c1)O[C@H](C)c1cc(F)ccc1C(=O)N(C)C2

IC50 [3]: 1900 nM | IC50 [4]: 860 nM | IC50 [5]: 1200 nM | IC50 [6]: 210 nM
SMILES: COc1ccc2cc1COC/C=C/COCc1cccc(c1)-c1ccnc(n1)N2

IC50 [3]: 3600 nM | IC50 [4]: 88 nM | IC50 [7]: 77 nM | IC50 [6]: 71 nM | IC50 [8]: 31 nM
SMILES: CN(C)CCN(C)c1ccc2cc1COC/C=C/COCc1cccc(c1)-c1ccnc(n1)N2

GI50 [9]: 100 nM | IC50 [3]: > 10000 nM | IC50 [4]: > 10000 nM | IC50 [10]: 10000 nM | Papp [11]: 10.1 ×10⁻⁶ cm/s | solubility [12]: 60.8 µg/mL (≈ 121 µM) | IC50 [7]: 19 nM | IC50 [5]: 890 nM | IC50 [6]: 180 nM | IC50 [13]: > 10000 nM | IC50 [8]: 92 nM
SMILES: COc1ccc2cc1COC/C=C/COCc1cc(ccc1OCCN1CCCC1)Nc1nccc-2n1

IC50 [3]: 3100 nM | IC50 [4]: 3700 nM | IC50 [7]: 84 nM | IC50 [5]: 2500 nM | IC50 [6]: 160 nM | IC50 [8]: 70 nM
SMILES: OCCN1CCN(c2ccc3cc2COC/C=C/COCc2cccc(c2)-c2ccnc(n2)N3)CC1

Ki [14]: < 0.1 nM | Ki [15]: 0.62 nM | logD [2]: 3.8
SMILES: C[C@@H]1Oc2cc(cnc2N)-c2c(C#N)nn(C)c2CCCOc2ccc(F)cc21

GI50 [9]: 180 nM | IC50 [3]: 1000 nM | IC50 [7]: 7 nM | IC50 [5]: 89 nM | IC50 [6]: 57 nM | IC50 [8]: 19 nM
SMILES: Cc1cnc2nc1-c1cccc(c1)COC/C=C/COCc1cc(ccc1OCCN1CCCC1)N2

solubility kinetic [16]: > 250 µg/mL | half-life [17]: 18 min | fraction unbound [18]: 0.127 | half-life [19]: > 60 min
SMILES: C1=C2COC/C=C/COCc3cc(ccc3OCCN3CCCC3)Nc3nccc(n3)C(=C1)O2 [CT-1578]

GI50 [21]: 1020 nM | GI50 [26]: 10.2 nM | GI50 [28]: 3290 nM | GI50 [29]: 742 nM
SMILES: O=C(Nc1cnn2ccc(N3CCC[C@@H]3c3cc(F)ccc3F)nc12)N1CC[C@H](O)C1 [LAROTRECTINIB]
GI50 [20]: 5 nM | GI50 [22]: 1020 nM | GI50 [23]: > 10000 nM | GI50 [24]: 18.8 nM | GI50 [25]: 172 nM | GI50 [27]: 70 nM

microsomal CLint [1]: < 8 µL/min/mg
SMILES: C[C@H]1Oc2cc(cnc2N)-c2c(nn(C)c2C#N)CN(C)C(=O)c2ccc(F)cc21 [LORLATINIB]

GI50 [9]: 160 nM | IC50 [4]: > 3900 nM | IC50 [30]: > 5000 nM | solubility kinetic [16]: > 150 µg/mL | IC50 [10]: 5000 nM | half-life [17]: 22 min | solubility [12]: > 150 µg/mL | fraction unbound [18]: 0.006 | half-life [19]: > 60 min | IC50 [31]: > 5000 nM | IC50 [13]: > 5000 nM
SMILES: C1=N/C2=N/c3ccc(OCCN4CCCC4)c(c3)COC/C=C/COCc3cccc(c3)C(=C1)N2 [PACRITINIB]

SMILES: C[C@@H]1CCc2ncc(F)cc2[C@H]2CCCN2c2ccn3ncc(c3n2)C(=O)N1 [SELITRECTINIB]
GI50 [22]: 29 nM | GI50 [23]: 45.5 nM | GI50 [25]: 17.5 nM | GI50 [27]: 25 nM | GI50 [32]: 7 nM | GI50 [33]: 9 nM

solubility kinetic [16]: 71.8 µg/mL (≈ 193 µM) | half-life [17]: 12 min | fraction unbound [18]: 0.006 | IC50 [31]: > 25000 nM
SMILES: CN1C/C=C/CCOc2cccc(c2)-c2ccnc(n2)Nc2cccc(c2)C1 [ZOTIRACICLIB]
